Measured values from publication PMC11242640 (International Journal of Molecular Sciences, 2024).
Like-named read-outs stand apart in the source and are kept apart here.

Assays:
eeAChE = eeAChE (Electrophorus electricus, UniProt O42275); assay: eeAChE inhibition, modified Ellman's method; type: biochemical
Method: (§1) Enzymes were prepared in 20 mM Tris buffer pH 7.5 and DTNB, ATChI, and BTChI in 50 mM Tris buffer pH 8.0. Cholinesterase activity was evaluated using a 96-well microplate reader (Bio Tek 800TSUV Absorbance Reader, Agilent, Santa Clara, CA, USA) at room temperature. The microplate well was filled with 180 μL of Tris buffer (50 mM, pH 8.0), 10 μL of tested solutions (final concentrations in a range of 20–1000 μM), 10 μL of an enzyme (final concentration 0.04 U/mL), 10 μL of DTNB (final concentration 0.3 mM), and […] of ATChI/BTChI (final concentration of 0.5 mM). […] Without the use of inhibitors and enzymes, non-enzymatic hydrolysis was evaluated as a blank for the control measurement. The non-enzymatic hydrolysis reaction with an added inhibitor was used as a blank for the samples. The same volume of buffer was substituted for the enzyme. All experiments were run in triplicate. The following formula was applied to calculate the inhibition percentage: Inhibition (%) = [(AC − AT)/AC] × 100, where AC is the activity of the enzyme without a test sample and AT is the activity of the enzyme with a test sample. […] The inhibitory activity of ethanol was subtracted from all the samples. The IC50 values were obtained by a nonlinear fit of compound concentration values versus the response.

eqBChE = molecular target: T1, eqBChE (Equus caballus, UniProt P81908); assay: eqBChE inhibition, modified Ellman's method; type: biochemical; details: for inhibition of BChE: concentration not given
T1 construct: eqBChE (from equine serum); purchased Sigma–Aldrich (St. Louis, MO, USA); host or cells: equine serum
Method: as §1

[1] = DPPH radical scavenging activity; details: for IC50: 30 min, 25 °C, dash = IC50 value not achieved; for DPPH Inhibition (%): at maximal concentration tested
Description: DPPH is the most commonly used method to determine the antioxidant activity of different potential antioxidants. DPPH is a stable organic radical capable of accepting an electron or a hydrogen radical and changing into a non-radical form, DPPH-H [50]. The percentage of radical quenching is used as a measure of the compound antioxidant capacity.
DPPH radical scavenging activity. The stable radical 1,1-diphenyl-2-picrylhydrazyl (DPPH, Sigma–Aldrich, St. Louis, MO, USA) is the reagent used in this spectrophotometric test. The DPPH ethanolic solution (c = 8⋅10^−4 mol/L) was prepared daily and stored in a dark flask at 4 °C between the measurements. […] The reaction mixture was vortexed and incubated in the dark for 30 min at 25 °C. […] Antioxidant substances reduce the DPPH radical and decrease its absorbance at this wavelength. The DPPH inhibition, reported as a percentage, was obtained according to the equation: Inhibition (%) = [(AC(0) − AA(t))/AC(0)] × 100, where AC(0) is the absorbance of the control at t = 0 min and AA(t) is the absorbance of the antioxidant at t = 30 min. Each of the measurements was conducted three times. Inhibition percentages were expressed as mean values ± standard deviation. IC50 values were calculated using a nonlinear fit of compound concentration values versus the inhibition percentage.

[2] = CUPRAC reducing antioxidant capacity assay; details: Trolox equivalent, pH 7.0
Description: The CUPRAC test is based on the reduction of Cu^2+ to Cu^+ due to the action of antioxidants. A reaction occurs at a pH 7.0 (close to physiological pH) in the presence of neocuproin. The reactive Ar-OH groups of polyphenols and other antioxidants are oxidized to the corresponding quinones, and Cu^2+-neocuproin is reduced to the colored complex Cu^+-neocuproin [51].
CUPRAC-reducing-antioxidant-capacity assay. […] Ammonium acetate, neocuproine, copper(II) chloride, and standard Trolox were purchased from Sigma–Aldrich (St. Louis, MO, USA). The reaction mixture contained 1 mL of each of these solutions: NH4Ac buffer (1 M, pH 7.0), Cu(II) chloride (10 mM), and neocuproine (7.5 mM, dissolved in ethanol). To make a final volume of 4.1 mL, x mL of the testing sample (or standard Trolox) and (1,1-x) mL of H2O were added to an initial mixture. The tubes were vortexed and left for 30 min at room temperature. As a blank test, the same mixture was used only without the test sample. Absorbance was recorded at 450 nm (UV-1800 UV/Vis spectrophotometer, Shimadzu, Kyoto, Japan).

[3] = read-out: eeAChE Inhibition (%)
[4] = read-out: eqBChE Inhibition (%)

eeAChE, sequence (O42275 24-633): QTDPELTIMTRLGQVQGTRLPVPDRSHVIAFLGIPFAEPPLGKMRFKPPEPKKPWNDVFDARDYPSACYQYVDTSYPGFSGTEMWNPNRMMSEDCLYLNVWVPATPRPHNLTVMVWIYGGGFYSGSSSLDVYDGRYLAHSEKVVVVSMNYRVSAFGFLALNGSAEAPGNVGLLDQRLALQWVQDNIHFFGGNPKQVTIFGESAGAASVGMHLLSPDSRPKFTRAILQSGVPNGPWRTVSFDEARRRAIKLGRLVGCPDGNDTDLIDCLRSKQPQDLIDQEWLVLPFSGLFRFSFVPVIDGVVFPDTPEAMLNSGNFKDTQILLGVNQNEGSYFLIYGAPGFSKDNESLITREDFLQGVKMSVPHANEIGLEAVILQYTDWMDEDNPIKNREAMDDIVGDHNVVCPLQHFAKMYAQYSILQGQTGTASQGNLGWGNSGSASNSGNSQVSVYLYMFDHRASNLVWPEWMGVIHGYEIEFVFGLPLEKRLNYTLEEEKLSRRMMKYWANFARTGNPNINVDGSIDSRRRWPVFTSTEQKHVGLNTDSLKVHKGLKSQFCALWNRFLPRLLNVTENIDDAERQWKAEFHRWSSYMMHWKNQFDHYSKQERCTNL
T1 sequence (P81908 whole entry): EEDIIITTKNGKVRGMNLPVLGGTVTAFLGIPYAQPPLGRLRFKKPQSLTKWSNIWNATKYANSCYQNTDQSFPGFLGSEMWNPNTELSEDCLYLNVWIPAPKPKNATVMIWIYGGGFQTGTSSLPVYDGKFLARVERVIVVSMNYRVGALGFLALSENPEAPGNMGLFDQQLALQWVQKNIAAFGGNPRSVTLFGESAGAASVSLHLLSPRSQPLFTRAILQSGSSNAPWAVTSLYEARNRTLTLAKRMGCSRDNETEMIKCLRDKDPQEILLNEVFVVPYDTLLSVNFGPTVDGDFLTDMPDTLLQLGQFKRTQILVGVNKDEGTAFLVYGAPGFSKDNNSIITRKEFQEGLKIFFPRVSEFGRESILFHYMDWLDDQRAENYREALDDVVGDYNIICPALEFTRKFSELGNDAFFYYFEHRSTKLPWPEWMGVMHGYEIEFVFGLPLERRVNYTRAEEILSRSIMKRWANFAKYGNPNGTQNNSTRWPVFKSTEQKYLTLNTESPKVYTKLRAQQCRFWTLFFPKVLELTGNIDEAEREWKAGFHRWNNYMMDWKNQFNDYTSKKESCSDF

Row | Compound | IC50 (eeAChE; dash = IC50 value not achieved) | inhibition at 500 µM (eeAChE; [3]) | IC50 (eqBChE; dash = IC50 value not achieved) | inhibition at 500 µM (eqBChE; [4]) | IC50 [1] | CUPRAC [2] | DPPH Inhibition (%) ([1]; 500 μM) | further results
1 | Cc1cnc(/C=C/c2ccc(O)cc2)s1 [Compound 12, (E)-4-(2-(5-methylthiazol-2-yl)vinyl)phenol] | > 100 µM | 9.1 ± 1.4% | 189 µM | 68.4 ± 1.3% | 140 µM |  |  | DPPH Inhibition (%) ([1]; 524 μM): 74.1 ± 0.4 (524) %
2 | Cc1ccc(/C=C/c2cc(F)ccc2O)s1 [Compound 5, (E)-4-fluoro-2-(2-(5-methylthiophen-2-yl)vinyl)phenol] | 155 µM |  | 22.9 µM |  | 130 µM | 0.204 mol TE/mol of Compound |  | inhibition at 250 µM (eeAChE; [3]): 84.6 ± 2.7%; inhibition at 100 µM (eqBChE; [4]): 75.3 ± 2.3%; DPPH Inhibition (%) ([1]; 400 μM): 83.0 ± 1.9 (400) %
3 | Oc1ccc(F)cc1/C=C/c1cccs1 [Compound 1, (E)-4-fluoro-2-(2-(thiophen-2-yl)vinyl)phenol] | 178 µM | 80.9 ± 1.9% | 66 µM |  | 159 µM | 0.925 mol TE/mol of Compound | 77.2 ± 0.5 (500) % | inhibition at 400 µM (eqBChE; [4]): 83.5 ± 0.8%
4 | Cc1cnc(/C=C\c2cc(Cl)ccc2O)s1 [Compound 10, (Z)-4-chloro-2-(2-(5-methylthiazol-2-yl)vinyl)phenol] | > 100 µM | 34.2 ± 2.1% | > 250 µM | 22.4 ± 9% | > 250 µM | 0.630 mol TE/mol of Compound | 24.0 ± 0.7 (500) % | 
5 | Cc1cnc(/C=C/c2cccc(O)c2)s1 [Compound 14, (E)-3-(2-(5-methylthiazol-2-yl)vinyl)phenol] | > 100 µM |  | > 250 µM |  | > 250 µM |  |  | inhibition at 250 µM (eeAChE; [3]): 10.7 ± 2.4%; inhibition of BChE (eqBChE): < 50%; inhibition at 250 µM (eqBChE; [4]): 15.6 ± 3.6%; DPPH Inhibition (%) ([1]; 250 μM): 11.2 ± 2.7 (250) %
6 | Cc1cnc(/C=C\c2cc(F)ccc2O)s1 [Compound 9, (Z)-4-fluoro-2-(2-(5-methylthiazol-2-yl)vinyl)phenol] | > 100 µM |  | > 250 µM |  | 428 µM | 1.000 mol TE/mol of Compound | 55.4 ± 0.7 (500) % | inhibition at 100 µM (eeAChE; [3]): 17.6 ± 3.1%; inhibition at 250 µM (eqBChE; [4]): 10.5 ± 4.1%
7 | COc1ccc(O)c(/C=C/c2ccc(C)s2)c1 [Compound 7, (E)-4-methoxy-2-(2-(5-methylthiophen-2-yl)vinyl)phenol] |  |  |  |  | 23.8 µM | 2.350 mol TE/mol of Compound |  | IC50 (eeAChE): 62.9 µM; inhibition at 200 µM (eeAChE; [3]): 81.1 ± 1.1%; IC50 (eqBChE): 42.5 µM; inhibition at 200 µM (eqBChE; [4]): 83.1 ± 0.8%; DPPH Inhibition (%) ([1]; 50 μM): 86.2 ± 2.3 (50) %
8 | Cc1cnc(/C=C/c2ccccc2O)s1 [Compound 13, (E)-2-(2-(5-methylthiazol-2-yl)vinyl)phenol] | > 100 µM | 17.1 ± 3.9% | 30.7 µM | 78.2 ± 3.8% | 699 µM |  |  | DPPH Inhibition (%) ([1]; 1047 μM): 59.8 ± 2.3 (1047) %
9 | Cc1ccc(O)c(/C=C/c2ccc(C)s2)c1 [Compound 8, (E)-4-methyl-2-(2-(5-methylthiophen-2-yl)vinyl)phenol] |  |  |  |  | 26.3 µM | 1.148 mol TE/mol of Compound |  | IC50 (eeAChE): 92.4 µM; inhibition at 150 µM (eeAChE; [3]): 78.2 ± 7.7%; IC50 (eqBChE): 24.8 µM; inhibition at 250 µM (eqBChE; [4]): 88.5 ± 5%; DPPH Inhibition (%) ([1]; 250 μM): 89.3 ± 1.2 (250) %
10 | COc1ccc(O)c(/C=C/c2cccs2)c1 [Compound 3, (E)-4-methoxy-2-(2-(thiophen-2-yl)vinyl)phenol] | 405 µM | 77.8 ± 5.2% | 206 µM | 68.5 ± 6.2% | 36.2 µM | 1.111 mol TE/mol of Compound | 87.7 ± 0.8 (500) % | 
11 | Oc1ccc(Cl)cc1/C=C/c1cccs1 [Compound 2, (E)-4-chloro-2-(2-(thiophen-2-yl)vinyl)phenol] | 82.3 µM |  | 53 µM |  | 265 µM | 0.713 mol TE/mol of Compound | 65.0 ± 2.4 (500) % | inhibition at 250 µM (eeAChE; [3]): 83 ± 2.5%; inhibition at 200 µM (eqBChE; [4]): 80.4 ± 6.4%
12 | Cc1ccc(O)c(/C=C/c2cccs2)c1 [Compound 4, (E)-4-methyl-2-(2-(thiophen-2-yl)vinyl)phenol] | 225 µM |  | 36.5 µM |  | 51.4 µM | 0.852 mol TE/mol of Compound |  | inhibition at 250 µM (eeAChE; [3]): 82.1 ± 1.1%; inhibition at 250 µM (eqBChE; [4]): 81.1 ± 2.2%; DPPH Inhibition (%) ([1]; 400 μM): 90.3 ± 0.6 (400) %
13 | COc1ccc(/C=C/c2ncc(C)s2)c(O)c1 [Compound 11, (E)-5-methoxy-2-(2-(5-methylthiazol-2-yl)vinyl)phenol] | > 100 µM | 29.3 ± 1.8% | > 250 µM | 9.8 ± 2.7% | 30.1 µM |  |  | inhibition of BChE (eqBChE): < 50%; DPPH Inhibition (%) ([1]; 524 μM): 89.8 ± 0.0 (524) %
14 | Cc1ccc(/C=C/c2cc(Cl)ccc2O)s1 [Compound 6, (E)-4-chloro-2-(2-(5-methylthiophen-2-yl)vinyl)phenol] |  |  |  |  | > 250 µM | 1.407 mol TE/mol of Compound |  | IC50 (eeAChE): 27.1 µM; inhibition at 80 µM (eeAChE; [3]): 82.4 ± 0.8%; IC50 (eqBChE): 39.7 µM; inhibition at 100 µM (eqBChE; [4]): 84 ± 1.8%; DPPH Inhibition (%) ([1]; 400 μM): 42.9 ± 2.7 (400) %
